Experimental data taken from patent US20260092083A1, “VANCOMYCIN DERIVATIVES WITH SIDEROPHORE MODIFICATION AS NOVEL REPURPOSED ANTIBIOTICS TO COMBAT GRAM-NEGATIVE BACTERIAL INFECTION” (priority 2023, published 2026).
Converted amounts (≈) assume the structure as drawn.

Key:
Assay type in all cases: cell-based
E. coli (tolC) JW5503-1 = assay: Broth microdilution MIC, E. coli efflux-deficient (tolC); conditions: Escherichia coli, read-out: MIC (μg/mL) Gram-negative EC Efflux
Protocol: (§1) The test compounds including vancomycin hydrochloride were supplied as a 6.4 mg/mL solution in 100% dimethyl sulfoxide (DMSO) aliquoted into individual wells of a 96-well plate (50 μL per well). […] Standardized inocula were added to the MIC test plates, which were incubated for the prescribed times at 35° C. The N. gonorrhoeae strain was incubated in an atmosphere containing 5% CO2.
(§2) The final optical density of each well at 600 nm was measured using a Tecan Spark plate reader. The compound concentration versus OD600 data were then curve fit using custom software. An MIC value was defined as the lowest compound concentration that led to an OD600 value≤0.15 for the E. coli, K. pneumoniae, P. aeruginosa, A. baumannii, or S. aureus strains. For the N. gonorrhoeae strain, an OD600 value≤0.19 was used as a cutoff to define an MIC value; this higher cut-off value was required because the N. gonorrhoeae MIC plates were covered with plastic seals that increased the background OD600 value.
(§3) JMI Laboratories followed current CLSI quality assurance practices when performing the susceptibility tests. MIC values were validated by concurrently testing the CLSI-recommended ATCC QC reference strains S. aureus ATCC 29213 and K. pneumoniae ATCC 700603. The inoculum density during susceptibility testing was monitored by bacterial colony counts. Where applicable, QC ranges for tested reference strains were those ranges approved or published by CLSI for testing in CAMHB. […] Importantly, the CLSI reference method for testing N. gonorrhoeae is the agar dilution MIC method, which was not used here. Thus, CLSI MIC QC ranges for N. gonorrhoeae could not be applied to the antimicrobials studied here.
(§4) Abbreviations: EC, E. coli (wild-type) BW25113; EC efflux^−, E. coli (tolC) JW5503-1; KPN, K. pneumoniae ATCC 700603; PSA, P. aeruginosa PAO1; PSA efflux^−, P. aeruginosa (multi-pump-gene mutant) PAM1626; ACB, A. baumannii JMI #1186154; GC, N. gonorrhoeae WHO-Z; SA, S. aureus ATCC 29213. Broth microdilution MIC values were measured in iron-depleted CAMHB for all strains except for GC, which was tested in fastidious broth.

[1] = system: A. baumannii JMI #1186154; assay: Broth microdilution MIC, A. baumannii; conditions: Acinetobacter baumannii, iron-depleted CAMHB, OD600 ≤0.15, read-out: MIC (μg/mL) Gram-negative ACB
Protocol: as §1, §2, §3, §4

[2] = system: E. coli (wild-type) BW25113; assay: Broth microdilution MIC, E. coli wild-type; conditions: Escherichia coli, iron-depleted CAMHB, OD600 ≤0.15, read-out: MIC (μg/mL) Gram-negative EC
Protocol: as §1, §2, §3, §4

N. gonorrhoeae WHO-Z = assay: Broth microdilution MIC, N. gonorrhoeae; conditions: Neisseria gonorrhoeae, read-out: MIC (μg/mL) Gram-negative GC
Protocol: as §1, §2, §3, §4

S. aureus ATCC 29213 = assay: Broth microdilution MIC, S. aureus; conditions: Staphylococcus aureus, ATCC29213, iron-depleted CAMHB, OD600 ≤0.15, read-out: MIC (μg/mL) Gram positive SA
Protocol: as §1, §2, §3, §4

[3] = system: K. pneumoniae ATCC 700603; assay: Broth microdilution MIC, K. pneumoniae; conditions: Klebsiella pneumoniae, ATCC700603, read-out: MIC (μg/mL) Gram-negative KPN
Protocol: as §1, §2, §3, §4

P. aeruginosa PAO1 = assay: Broth microdilution MIC, P. aeruginosa; conditions: Pseudomonas aeruginosa, iron-depleted CAMHB, OD600 ≤0.15, read-out: MIC (μg/mL) Gram-negative PSA
Protocol: as §1, §2, §3, §4

[4] = system: P. aeruginosa (multi-pump-gene mutant) PAM1626; assay: Broth microdilution MIC, P. aeruginosa efflux-deficient; conditions: Pseudomonas aeruginosa, read-out: MIC (μg/mL) Gram-negative PSA Efflux
Protocol: as §1, §2, §3, §4

SMILES	MIC (E. coli (tolC) JW5503-1) [µg/mL]	MIC [1] [µg/mL]	MIC [2] [µg/mL]	MIC (N. gonorrhoeae WHO-Z) [µg/mL]	MIC (S. aureus ATCC 29213) [µg/mL]	MIC [3] [µg/mL]	MIC (P. aeruginosa PAO1) [µg/mL]	MIC [4] [µg/mL]
CNC(CC(C)C)C(=O)N[C@H]1C(=O)N[C@@H](CC(N)=O)C(=O)N[C@H]2C(=O)N[C@H]3C(=O)N[C@H](C(=O)N[C@@H](C(=O)NCCNC(=O)c4ccc(O)c(O)c4Cl)c4cc(O)cc(O)c4-c4cc3ccc4O)[C@H](O)c3ccc(c(Cl)c3)Oc3cc2cc(c3OC2O[C@H](CO)C(O)C(O)[C@H]2O[C@H]2CC(C)(N)[C@H](O)C(C)O2)Oc2ccc(cc2Cl)[C@H]1O (stereo in doubt) [Compound 3]	> 64	2 (≈ 1.2 µM)	16 (≈ 9.63 µM)	> 64	4 (≈ 2.41 µM)	> 64	> 64	> 64
CNC(CC(C)C)C(=O)N[C@H]1C(=O)N[C@@H](CC(N)=O)C(=O)N[C@H]2C(=O)N[C@H]3C(=O)N[C@H](C(=O)N[C@@H](C(=O)NCCOCCNC(=O)c4ccc(O)c(O)c4Cl)c4cc(O)cc(O)c4-c4cc3ccc4O)[C@H](O)c3ccc(c(Cl)c3)Oc3cc2cc(c3OC2O[C@H](CO)C(O)C(O)[C@H]2O[C@H]2CC(C)(N)[C@H](O)C(C)O2)Oc2ccc(cc2Cl)[C@H]1O (stereo in doubt) [Compound 10]	> 64	2 (≈ 1.17 µM)	16 (≈ 9.38 µM)	> 64	4 (≈ 2.34 µM)	> 64	> 64	> 64
CN[C@H](CC(C)C)C(=O)N[C@H]1C(=O)N[C@@H](CC(N)=O)C(=O)N[C@H]2C(=O)N[C@H]3C(=O)N[C@H](C(=O)N[C@H](C(=O)NCCOCCOCCNC(=O)c4ccc(O)c(O)c4Cl)c4cc(O)cc(O)c4-c4cc3ccc4O)[C@H](O)c3ccc(c(Cl)c3)Oc3cc2cc(c3O[C@@H]2O[C@H](CO)C(O)C(O)[C@H]2O[C@H]2CC(C)(N)[C@H](O)[C@H](C)O2)Oc2ccc(cc2Cl)[C@H]1O (stereo in doubt) [Compound 11]	> 64	1 (≈ 0.571 µM)	64 (≈ 36.6 µM)	> 64	4 (≈ 2.29 µM)	> 64	> 64	> 64
CNC(CC(C)C)C(=O)N[C@H]1C(=O)N[C@@H](CC(N)=O)C(=O)N[C@H]2C(=O)N[C@H]3C(=O)N[C@H](C(=O)N[C@@H](C(=O)NCc4cn(CCNC(=O)c5cccc(O)c5O)nn4)c4cc(O)cc(O)c4-c4cc3ccc4O)[C@H](O)c3ccc(c(Cl)c3)Oc3cc2cc(c3OC2O[C@H](CO)C(O)C(O)[C@H]2O[C@H]2CC(C)(N)[C@H](O)C(C)O2)Oc2ccc(cc2Cl)[C@H]1O (stereo in doubt) [Compound 14]	> 64	16 (≈ 9.36 µM)	> 64	> 64	4 (≈ 2.34 µM)	> 64	> 64	> 64
CN[C@H](CC(C)C)C(=O)N[C@H]1C(=O)N[C@@H](CC(N)=O)C(=O)N[C@H]2C(=O)N[C@H]3C(=O)N[C@H](C(=O)N[C@H](C(=O)NCCOCCOCCNS(=O)(=O)c4ccc(O)c(O)c4)c4cc(O)cc(O)c4-c4cc3ccc4O)[C@H](O)c3ccc(c(Cl)c3)Oc3cc2cc(c3O[C@@H]2O[C@H](CO)C(O)C(O)[C@H]2O[C@H]2CC(C)(N)[C@H](O)[C@H](C)O2)Oc2ccc(cc2Cl)[C@H]1O (stereo in doubt) [Compound 18]	> 64	1 (≈ 0.571 µM)	64 (≈ 36.5 µM)	> 64	4 (≈ 2.28 µM)	> 64	> 64	> 64
CNC(CC(C)C)C(=O)NC1C(=O)NC(CC(N)=O)C(=O)NC2C(=O)NC3C(=O)NC(C(=O)N[C@H](C(=O)NCCCNC(=O)c4cc(=O)c(O)c[nH]4)c4cc(O)cc(O)c4-c4cc3ccc4O)C(O)c3ccc(c(Cl)c3)Oc3cc2cc(c3OC2OC(CO)C(O)C(O)C2OC2CC(C)(N)C(O)C(C)O2)Oc2ccc(cc2Cl)C1O (stereo in doubt) [Compound 20]	64 (≈ 39 µM)	32 (≈ 19.5 µM)	32 (≈ 19.5 µM)	> 64	32 (≈ 19.5 µM)	> 64	64 (≈ 39 µM)	64 (≈ 39 µM)
